Measurements: US20240067604A1, “COMBINATIONS OF IRS/STAT3 DUAL MODULATORS AND ANTI PD-1/PD-L1 ANTIBODIES FOR TREATING CANCER” (TYRNOVO LTD., priority 2017, published 2024)

Tested on: esophagogastric junction adenocarcinoma patient-derived xenograft (PDX)
Assay: Patient-derived xenograft (PDX) of esophagogastric junction adenocarcinoma in NodScid mice supplemented with PBMCs from the same patient (double autologous)
Type: in vivo, NodScid mice (human tumor and PBMCs)
Settings: PDX SC in NodScid mice + patient PBMCs; Compound 4 70 mg/kg IV and/or Keytruda 6 mg/kg IP on days 0, 5 and 11; treatment started at ~160 mm^3; sacrificed on day 18
Text: Patient-derived xenograft (PDX) of esophagogastric junction adenocarcinoma biopsy subcutaneous (SC) implanted into NodScid mice. At the first day of treatment peripheral blood mononuclear cells (PBMCs) from the same patient were intravenous injected to the mice (double autologous).
Fresh human primary esophagogastric junction adenocarcinoma biopsy was subcutaneously (SC) implanted into NSG mice (P0).
Subcutaneous implantation of human primary tumor biopsy into NodScid mice.
The tumor (P3) was extracted from the mice, measured, cut into small pieces of 1-2 mm and transferred into the gentleMACS Tube containing the sterile saline. […] Animals were observed and monitored for any discomfort and immobility day by day.
Isolation of human PBMCs: Human PBMCs were isolated from heparinized venous blood samples of the same esophagus adenocarcinoma patient by density gradient centrifugation method using Ficol Histopaque (Sigma). […] The total cell number and the number of viable cells were evaluated. […] On the day of injection, the cells were thawed, washed twice in order to dilute possible DMSO residues by the addition of PBS and centrifugation (600 g for 10 minutes, RT) and viable cells were counted. […]
The length (l) and the width (w) of the tumors were measured 4-5 times a week and the volumes of the tumors were calculated as follows: v=lw^2/2. […]

SMILES: Oc1cc(CNC(=S)/C=C/c2ccc(O)c(O)c2Br)cc(O)c1O [Compound 4]
- Tumor response / tumor progression (tumor volume, FIG. 1): no response
